# Legend:
# [1] = Metabolic stability in liver microsomes (mouse); type: in vitro ADME
# Protocol: (§1) Mouse, rat, dog, human, and cynomolgus monkey liver microsomes were obtained from BD Gentest (Woburn, MA). The lot numbers were 13 (mouse), 8 (rat), 8 (dog), 19 and 26 (human), and 3 (cynomolgus monkey). […] The reaction, conducted in triplicate, was initiated by the addition of NADPH followed by incubation at 37°C for 50 minutes. Aliquots of samples (0.25 mL) were taken at 0, 5, 10, 20, 30, 40 and 50 minutes and the reaction was quenched by the addition of 3 volumes of acetonitrile. […] The reaction, conducted in triplicate, was initiated by the addition of NADPH followed by incubation at 37 °C for 50 minutes. Aliquots of samples (0.25 mL) were taken at 0, 5, 10, 20, 30, 40 and 50 minutes and the reaction was quenched by the addition of 3 volumes of acetonitrile. […] The reaction, conducted in duplicate, was initiated by the addition of NADPH followed by incubation at 37°C for 40 minutes. Aliquots of samples (0.25 mL) were taken at 0, 5, 10, 15, 20, 30 and 40 minutes and the reaction was quenched by the addition of 3 volumes of acetonitrile. For all studies, samples were analyzed immediately by an LC/MS method.
# [2] = Metabolic stability in liver microsomes (cynomolgus monkey); type: in vitro ADME
# Protocol: as §1
# CSF Aβ40 = assay: Rat CSF Aβ40 assay (4G8-TSD ELISA); type: in vivo; details: acute rat studies; read-out: ED50 for reduction of CSF Aβ40
# Text: As a result of these sequence differences, antibodies that recognize the N-terminal region of human Aβ, such as 26D6, bind weakly to rodent Aβ. […] Table 1: Summary of Antibody Pairs Used to Assay In vivo Samples Each of these assays was validated using several methods. […] The optimized and validated Aβ assays still contained a small amount of the signal (5-20% of vehicle control) which could not be depleted by anti-Aβ antibodies or treatment with γ-secretase inhibitors. […] Female Harlan Sprague-Dawley rats (∼200 - 250 g) were dosed daily by oral gavage with a dosing vehicle of 99% PEG-400, 1% Tween-80 at 4 mL/kg in the morning. […] All procedures were done in concordance with ACUC guidelines. […] Plasma was obtained after centrifugation. […] CSF samples were centrifuged to remove cells or debris prior to dilution at 1:2 in 4% BSA and frozen for subsequent analysis. […] Plates were coated with TSD antibody and washed as for the brain Aβ40 assay. CSF samples were diluted 1:10 in PBS, pH 7.8, 0.1 % Tween-20. At time of collection, CSF was previously diluted 1:2 in 4% BSA in water. […] Samples were detected using 4G8-biotin (Signet) diluted 1:8000 in PBS, 0.05% Tween, 0.1% BSA for 1 hour.
# [3] = test system: γ-secretase inhibitor binding sites in the brain; assay: Gamma-secretase site occupancy in rat brain sections; type: in vivo
# Protocol: Female Harlan Sprague-Dawley rats (∼200 - 250 g) were dosed daily by oral gavage with a dosing vehicle of 99% PEG-400, 1% Tween-80 at 4 mL/kg in the morning. […] All procedures were done in concordance with ACUC guidelines. […] Plasma was obtained after centrifugation. […] CSF samples were centrifuged to remove cells or debris prior to dilution at 1:2 in 4% BSA and frozen for subsequent analysis.
# Brain sections were cut coronally at a thickness of 20 µm on a cryostat and thaw-mounted onto Superfrost Plus slides. Sections were saved at the level of the rostral hippocampus, with 3 sections per slide at intervals of about 120 µm, and frozen at -20°C until use. For occupancy studies, brain sections were warmed to room temperature, dried, incubated for 10 minutes in 50 mM HEPES buffer, pH 7.4, then transferred to the same buffer containing 1.5 nM [^3H]IN973 (Goldstein, M.E. et al., J. Pharmacol. Exp. Ther., 323:102-108 (2007)) or [^3H] (R)-4-((N-(1-amino-4-methyl-1-oxopentan-2-yl)-4-chlorophenylsulfonamido)methyl)-N-(2-methoxyethyl)benzamide and incubated at room temperature for 10 minutes. To define nonspecific binding, adjacent sections were incubated in buffer containing [^3H]IN973 or [^3H] (R)-4-((N-(1-amino-4-methyl-1-oxopentan-2-yl)-4-chlorophenylsulfonamido)methyl)-N-(2-methoxyethyl)benzamide, but including unlabeled γ-secretase inhibitor at 0.5 µM. After the incubation, the slides were washed three times for 2 minutes each in ice-cold PBS, pH 7.2, dipped in ice-cold distilled water, and dried with a fan blowing cool air. The slides were placed under tritium-sensitive phosphor storage screens (Amersham Biosciences, Arlington Heights, IL) and exposed in the dark for 7 days. Images were acquired from the phosphor storage screens using a Cyclone phosphor scanner (Packard, Meriden, CT) and OptiQuant acquisition and analysis software (Packard). Optical densities (expressed as digital light units per square millimeter) over areas of interest were measured and expressed as a percent of vehicle control.
# CYP3A4 mRNA = details: human, 3 days, 20 µM
# Protocol: [[2-fluoro-4-(1,2,4-oxadiazol-3-yl)phenyl]methyl]amino]-5,5,5-trifluoropentanamide to induce CYP3A4 mRNA was evaluated in vitro using the Fa2N-4 cell line. The Fa2N-4 cell is an immortalized human hepatocyte line that was created using the Simian virus 40 (SV40) T antigen as the immortalizing gene, while retaining basal expression and inducibility of several CYP isoforms, including CYP3A4. Fa2N-4 cells and MFE Support Media F were provided by XenoTech, LLC (Lenexa, Kansas).
# Upon the receipt of the cells, the media were changed and the cells maintained overnight in a humidified, CO2-supplied incubator. After this adaptation period, the cells were examined under a light microscope and a determination was made as to whether the cells were morphologically normal and suitable for use. During the treatment period, the cells were visually inspected on a daily basis; cellular morphology, confluency, and signs of toxicity due to the test article were documented as necessary. […] Rifampicin (10 µM), a prototypical CYP3A4 inducer, was used as the positive control. Fa2N-4 cells were exposed to the test articles for a total of 3 days. The culture medium was replaced daily with fresh medium containing the test articles. After a total of ~72 hours of exposure, medium was aspirated and the cells washed once with warm phosphate buffered saline solution before adding the cell lysis buffer (Qiagen, Valencia, CA).
smiles,measurement,setting,value
"NC(=O)[C@@H](CCC(F)(F)F)N(Cc1ccc(-c2ncon2)cc1F)S(=O)(=O)c1ccc(Cl)cc1 [(2R)-2-[[(4-chlorophenyl)sulfonyl][[2-fluoro-4-(1,2,4-oxadiazol-3-yl)phenyl]methyl]amino]-5,5,5-trifluoropentanamide]",rate of in vitro metabolism,"[1]; mouse microsomes, NADPH-fortified, 1 µM",690 pmol/min/mg protein
same,predicted in vivo (serum) clearance,"[1]; mouse, scaled from liver microsome rate",approximately 87 mL/min/kg
same,rate of in vitro metabolism,"[2]; cynomolgus monkey microsomes, NADPH-fortified, 1 µM",495 pmol/min/mg protein
same,predicted in vivo (serum) clearance,"[2]; cynomolgus monkey, scaled from liver microsome rate",~39 mL/min/kg
same,ED50,CSF Aβ40,1 to 10 mg/kg
same,site occupancy,"[3]; single dose 1 mg/kg, by 24 hours",gradually returned to baseline values
same,brain γ-secretase binding sites occupied,"[3]; single dose 1 mg/kg, two hours after dose",75%
same,γ-secretase inhibitor binding sites in the brain occupied,"[3]; single dose 10 mg/kg, 24 hr timepoint",88%
same,γ-secretase inhibitor binding sites in the brain occupied,"[3]; single dose 10 mg/kg, all but the 24 hr timepoint",greater than 94%
same,γ-secretase inhibitor binding sites in the brain occupied,"[3]; single dose 100 mg/kg, throughout the dosing interval",greater than 94%
same,magnitude of induction as % of the induction response caused by rifampicin,CYP3A4 mRNA,22%
